From ChEMBL document CHEMBL4699558, “Lead optimization of 8-(methylamino)-2-oxo-1,2-dihydroquinolines as bacterial type II topoisomerase inhibitors” (Bioorg Med Chem, 2020)
Converted amounts (≈) assume the structure as drawn.

Assays:
Staphylococcus aureus [1] = experiment: Antibacterial activity against hospital-acquired Methicillin -resistant Staphylococcus aureus ATCC BAA-811 by CLSI method; format: functional
Staphylococcus aureus [2] = experiment: Antibacterial activity against community-acquired Methicillin -resistant Staphylococcus aureus ATCC BAA-1556 by CLSI method; format: functional
DNA gyrase = DNA gyrase (Escherichia coli, UniProt P0AES4+P0AES6); experiment: Inhibition of Escherichia coli DNA gyrase by measuring supercoiling activity incubated for 60 mins by fluorescence based assay; format: protein-complex assay
[3] = Inhibition of Escherichia coli topoisomerase IV by measuring relaxation activity incubated for 30 mins by fluorescence based assay
Escherichia coli [4] = experiment: Antibacterial activity against Escherichia coli ATCC 25922 by CLSI method; format: functional
Escherichia coli [5] = experiment: Antibacterial activity against Escherichia coli ATCC 25922 in presence of PAbetaN by CLSI method; format: functional
Staphylococcus aureus [6] = experiment: Antibacterial activity against Staphylococcus aureus ATCC 29213 by CLSI method; format: functional
Enterococcus faecium [7] = experiment: Antibacterial activity against Enterococcus faecium ATCC 35667 by CLSI method; format: functional
Enterococcus faecium [8] = experiment: Antibacterial activity against vancomycin-resistant Enterococcus faecium ATCC 51559 by CLSI method; format: functional
Enterococcus faecalis [9] = experiment: Antibacterial activity against Enterococcus faecalis ATCC 29212 by CLSI method; format: functional
Enterococcus faecalis [10] = experiment: Antibacterial activity against vancomycin-resistant Enterococcus faecalis ATCC 51575 by CLSI method; format: functional
Streptococcus pneumoniae = experiment: Antibacterial activity against Streptococcus pneumoniae ATCC 49619 by CLSI method; format: functional
Streptococcus anginosus = experiment: Antibacterial activity against Streptococcus anginosus ATCC 33397 by CLSI method; format: functional
Haemophilus influenzae = experiment: Antibacterial activity against Haemophilus influenzae ATCC 43095 by CLSI method; format: functional
[11] = target: DNA gyrase (Escherichia coli) (UniProt P0AES6+P0AES4); experiment: Potency index, ratio of IC50 of 4-(8-(methylamino)-2-oxo-1,2-dihydroquinoline-3-carboxamido)benzoic acid to IC50 of compound for inhibition of Escherichia coli DNA gyrase incubated for 60 mins by fluorescence based assay; format: protein-complex assay
Escherichia coli [12] = experiment: Potency index, ratio of MIC of 4-(8-(methylamino)-2-oxo-1,2-dihydroquinoline-3-carboxamido)benzoic acid to MIC of compound for antibacterial activity against Escherichia coli ATCC 25922; format: functional

CNc1cc(F)cc2cc(C(=O)Nc3ccc(C(=O)O)cc3)c(=O)[nH]c12
MIC (Staphylococcus aureus [1]): 8 µg/mL (≈ 22.5 µM)
MIC (Staphylococcus aureus [2]): 8 µg/mL (≈ 22.5 µM)
IC50 (DNA gyrase): 0.36 nM
IC50 [3]: 219 nM
MIC (Escherichia coli [4]): 16 µg/mL (≈ 45 µM)
MIC (Escherichia coli [5]): 0.015 µg/mL
MIC (Staphylococcus aureus [6]): 4 µg/mL (≈ 11.3 µM)
MIC (Enterococcus faecium [7]): 0.03 µg/mL (≈ 0.0844 µM)
MIC (Enterococcus faecium [8]): 0.015 µg/mL (≈ 0.0422 µM)
MIC (Enterococcus faecalis [9]): 0.015 µg/mL (≈ 0.0422 µM)
MIC (Enterococcus faecalis [10]): 0.015 µg/mL (≈ 0.0422 µM)
MIC (Streptococcus pneumoniae): 0.03 µg/mL (≈ 0.0844 µM)
MIC (Streptococcus anginosus): 0.06 µg/mL (≈ 0.169 µM)
MIC (Haemophilus influenzae): 0.03 µg/mL (≈ 0.0844 µM)
Ratio IC50 [11]: 5
Ratio (Escherichia coli [12]): 4
